In patent US8017791B2, “Tri-substituted 2-benzhydryl-5-benzylamino-tetrahydro-pyran-4-ol and 6-benzhydryl-4-benzylamino-tetrahydro-pyran-3-ol analogues, and novel, 3,6-disubstituted pyran derivatives” (Wayne State University, priority 2003, dated 2011):
Entries after “also recorded” stand apart in the source; their conditions may differ. Where two headings read alike, the source gives them in different places.

What was measured:
DAT [1] = molecular target: T1, DAT (Rattus norvegicus, UniProt P23977); conditions: Table 2; values marked b: See reference # 22; read-out: DAT binding, IC50, [3H]Win 35,428; cited from earlier work
T1 construct: rat striatum was the source for DAT, and cerebral cortex for SERT and NET; from tissue; P2 synaptosomal fraction for uptake

DAT [2] = molecular target: T1, DAT; assay: Inhibition of [3H]WIN 35,428 binding to DAT
Procedure: (§1) Biology. […] Briefly, rat striatum was the source for DAT, and cerebral cortex for SERT and NET. […] Test compounds were dissolved in dimethyl sulfoxide (DMSO) and diluted out in 10% (v/v) DMSO. […] At least five triplicate concentrations of each test compound were studied, spaced evenly around the IC50 value. For DAT uptake assays, uptake of 50 nM [^3H]DA into rat striatal synaptosomes was measured exactly as described by us previously. Briefly, rat striatal P2 membrane fractions were incubated with test compounds for 8 min followed by the additional presence of [^3H]DA for 4 min at 25?. […] Construction of inhibition curves and dissolvement of test compounds were as described above.

DAT [3] = molecular target: T1, DAT; assay: Inhibition of [3H]DA uptake by DAT into rat striatal synaptosomes; format: biochemical; conditions: for [3H]DA uptake/DAT binding: Table 3, ratio of IC50 values
Procedure: as §1

NET [4] = assay: Inhibition of [3H]nisoxetine binding to NET; set-up: species or system rat; conditions: Table 3; selectivity ratio of IC50 values
Procedure: as §1

NET [5] = molecular target: NET (Rattus norvegicus, UniProt Q9WTR4); assay: Inhibition of [3H]nisoxetine binding to NET
Procedure: as §1

SERT [6] = molecular target: T2, SERT (Rattus norvegicus, UniProt P31652); assay: Inhibition of [3H]citalopram binding to SERT; conditions: for SERT binding/DAT binding: Table 3, selectivity ratio of IC50 values
T2 construct: rat striatum was the source for DAT, and cerebral cortex for SERT and NET; from tissue; host or cells: rat cerebral cortex
Procedure: as §1

NET (Rattus norvegicus) = molecular target: T3, NET (Rattus norvegicus); assay: NET uptake inhibition, [3H]NE; format: biochemical; conditions: Table 4; rat brain
T3 construct: from tissue

SERT [7] = molecular target: T2, SERT; assay: SERT uptake inhibition, [3H]5-HT; format: biochemical; conditions: for blockade of both SERT and NET (SNRI profile), in words: in vitro data
[8] = Table 2, average ± SEM, read-out: DAT uptake, IC50 [3H]DA
[9] = Table 2, average ± SEM, read-out: SERT binding, IC50 [3H]citalopram
[10] = Table 2, average ± SEM, read-out: NET binding, IC50 [3H]nisoxetine
[11] = Table 2, average ± SEM of three to eight experiments, read-out: DAT binding, IC50, [3H]Win 35,428
[12] = Table 4, rat brain, read-out: DAT binding, IC50, [3H]Win 35,428
[13] = Table 4, rat brain, read-out: SERT uptake, IC50 [3H]5-HT
[14] = Table 4, rat brain, read-out: DAT uptake, IC50 [3H]DA
[15] = Table 1, read-out: Inhibition of [3H]nisoxetine binding to NET, IC50
[16] = Table 1, read-out: Inhibition of [3H]citalopram binding to SERT, IC50
[17] = Table 1, rat striatum, read-out: Inhibition of [3H]Win 35,428 binding to DAT IC50

T3 sequence (Q63380 1-617): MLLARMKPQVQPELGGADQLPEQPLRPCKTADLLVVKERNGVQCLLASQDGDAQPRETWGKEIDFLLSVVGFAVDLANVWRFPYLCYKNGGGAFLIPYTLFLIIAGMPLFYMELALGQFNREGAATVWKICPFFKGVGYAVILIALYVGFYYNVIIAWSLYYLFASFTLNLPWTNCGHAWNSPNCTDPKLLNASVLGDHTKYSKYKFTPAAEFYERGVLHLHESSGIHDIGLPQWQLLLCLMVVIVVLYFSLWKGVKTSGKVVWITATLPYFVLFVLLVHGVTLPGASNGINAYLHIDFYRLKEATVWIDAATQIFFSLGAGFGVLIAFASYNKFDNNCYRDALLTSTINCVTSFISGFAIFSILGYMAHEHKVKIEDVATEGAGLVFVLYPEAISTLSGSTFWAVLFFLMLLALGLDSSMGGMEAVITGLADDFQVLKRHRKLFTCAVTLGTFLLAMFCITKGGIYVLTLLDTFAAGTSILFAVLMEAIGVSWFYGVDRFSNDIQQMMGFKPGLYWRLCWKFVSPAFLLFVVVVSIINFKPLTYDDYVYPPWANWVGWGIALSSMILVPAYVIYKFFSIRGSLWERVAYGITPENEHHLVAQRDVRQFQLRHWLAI
T1 sequence (P23977 whole entry): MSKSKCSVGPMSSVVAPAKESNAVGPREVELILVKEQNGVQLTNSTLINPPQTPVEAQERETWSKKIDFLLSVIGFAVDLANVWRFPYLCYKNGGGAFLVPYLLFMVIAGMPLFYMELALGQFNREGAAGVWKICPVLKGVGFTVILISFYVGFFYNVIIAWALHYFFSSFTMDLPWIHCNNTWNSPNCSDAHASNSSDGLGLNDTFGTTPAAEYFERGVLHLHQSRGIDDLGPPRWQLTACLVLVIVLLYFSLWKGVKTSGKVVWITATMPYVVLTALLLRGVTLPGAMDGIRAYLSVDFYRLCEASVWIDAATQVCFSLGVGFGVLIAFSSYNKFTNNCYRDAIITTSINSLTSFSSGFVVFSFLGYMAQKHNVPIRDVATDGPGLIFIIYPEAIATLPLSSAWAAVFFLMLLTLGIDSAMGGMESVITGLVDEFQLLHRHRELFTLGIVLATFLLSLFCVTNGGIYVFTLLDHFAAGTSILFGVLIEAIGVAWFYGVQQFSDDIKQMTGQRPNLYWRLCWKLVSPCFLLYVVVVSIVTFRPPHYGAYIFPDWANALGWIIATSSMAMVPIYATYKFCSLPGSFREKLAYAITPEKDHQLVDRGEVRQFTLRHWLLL
T2 sequence (P31652 whole entry): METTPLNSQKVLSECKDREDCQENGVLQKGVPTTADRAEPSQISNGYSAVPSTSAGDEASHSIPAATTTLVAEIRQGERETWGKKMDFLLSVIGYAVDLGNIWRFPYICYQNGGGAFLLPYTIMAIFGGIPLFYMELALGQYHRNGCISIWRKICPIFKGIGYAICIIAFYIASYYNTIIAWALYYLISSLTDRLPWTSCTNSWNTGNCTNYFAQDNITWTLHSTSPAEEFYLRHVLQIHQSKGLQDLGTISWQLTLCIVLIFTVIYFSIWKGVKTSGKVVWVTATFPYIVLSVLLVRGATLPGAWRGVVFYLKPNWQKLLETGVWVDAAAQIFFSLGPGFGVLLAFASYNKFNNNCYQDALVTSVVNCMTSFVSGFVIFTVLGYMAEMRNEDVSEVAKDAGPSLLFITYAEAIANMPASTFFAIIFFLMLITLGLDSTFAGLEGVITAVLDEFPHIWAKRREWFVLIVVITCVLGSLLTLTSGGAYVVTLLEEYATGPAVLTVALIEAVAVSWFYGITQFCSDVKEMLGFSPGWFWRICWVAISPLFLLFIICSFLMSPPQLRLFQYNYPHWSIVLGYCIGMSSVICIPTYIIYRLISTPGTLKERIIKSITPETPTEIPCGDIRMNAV

IC50 (DAT [3]; [8]) [µM]	NET binding/DAT binding (NET [4])	IC50 (SERT [6]; [9]) [µM]	SERT binding/DAT binding (SERT [6])	IC50 (NET [5]; [10]) [µM]	IC50 (DAT [2]; [11]) [µM]	Structure (SMILES)	IC50 (NET (Rattus norvegicus)) [µM]	IC50 (DAT [2]; [12]) [µM]	IC50 (SERT [7]; [13]) [µM]	IC50 (DAT [3]; [14]) [µM]	also measured
0.135 ± 0.0475	1.8	1.64	7.2			c1ccc(C(c2ccccc2)C2CCC(NCc3cc4ccccc4[nH]3)CO2)cc1 (stereo not drawn) [Compound 16g, Cis-(6-benzhydryl-tetrahydropyran-3-yl)-(2-indole-methyl)-amine]					IC50 (NET [5]; read-out: IC50 for the NET): 0.401 µM; fold more active at DAT compared to the 3-substituted 16f (DAT [2]): 3.5 fold; IC50 (DAT [2]; read-out: IC50 at the DAT): 0.227 µM; [3H]DA uptake/DAT binding (DAT [3]): 0.60
0.88 ± 0.136	0.36	0.78 ± 0.084	1.9	0.144 ± 0.025	0.4 ± 0.031	Clc1ccc(CN[C@H]2CC[C@@H](C(c3ccccc3)c3ccccc3)OC2)cc1Cl (relative stereo) [Compound 16i, Cis-(6-benzhydryl-tetrahydropyran-3-yl)-(3,4-dichloro-benzyl)-amine]					
						O[C@H]1C[C@H](C(c2ccccc2)c2ccccc2)OC[C@@H]1NCCc1ccc(F)cc1 [(+)-29c, (2R,4S,5S)-2-benzhydryl-5-[2-(4-fluoro-phenyl)-ethylamino]-tetrahydropyran-4-ol]	0.0773 ± 0.003	0.443 ± 0.052	2.95 ± 0.38	0.218 ± 0.02	
						COc1cc(CN[C@@H]2CO[C@H](C(c3ccccc3)c3ccccc3)C[C@H]2O)cc(OC)c1 [(−)-29f, (2S,4R,5R)-2-benzhydryl-5-(3,5-dimethoxy-benzylamino)-tetrahydropyran-4-ol]	0.108 ± 0.011	0.298 ± 0.029	0.0254 ± 0.002	0.135 ± 0.003	blockade of both SERT and NET (SNRI profile), in words (SERT [7]; Table 4): potent blockers for both SERT and NET; blockade of both SERT and NET (SNRI profile), in words (SERT [7]; Table 4, listed as (−)29f): dual transport blockers
	1.9	3.52	9.6	0.695 ± 0.142	0.368 ± 0.085	Fc1ccc(CN[C@H]2CC[C@@H](C(c3ccccc3)c3ccccc3)OC2)cc1F (relative stereo) [Compound 16j, Cis-(6-benzhydryl-tetrahydropyran-3-yl)-(3,4-difluoro-benzyl)-amine]					
0.242 ± 0.039	0.90	1.58 ± 0.097	5.20	0.274 ± 0.029	0.303 ± 0.014	c1ccc(CN[C@H]2CC[C@@H](C(c3ccccc3)c3ccccc3)OC2)cc1 (relative stereo) [Compound 16k, Cis-(6-benzhydryl-tetrahydropyran-3-yl)-benzyl-amine]					IC50 (NET [5]; [15]): 0.274 ± 0.029 µM; IC50 (SERT [6]; [16]): 1.58 ± 0.097 µM; IC50 (DAT [2]; [17]): 0.303 ± 0.014 µM; IC50 (DAT [3]; Table 1, read-out: Inhibition of [3H]DA uptake by DAT, IC50): 0.242 ± 0.039 µM; [3H]DA uptake/DAT binding (DAT [3]): 0.79
	3.9	3.31	2.5	5.1	1.3	Fc1ccc(CN[C@H]2CCO[C@@H](C(c3ccccc3)c3ccccc3)C2)cc1 (relative stereo) [Compound 7a, cis-(2-benzhydryl-tetrahydropyran 4-yl)-(4-fluorobenzyl)-amine]					IC50 (NET [5]; [15]): 5.1 µM; IC50 (SERT [6]; [16]): 3.31 µM; activity at DAT, in words (DAT [2]): much weaker at DAT; IC50 (DAT [2]; [17]): 1.3 µM
	2.3	2.59	3.3			c1ccc(C(c2ccccc2)C2CCC(NCc3c[nH]c4ccccc34)CO2)cc1 (stereo not drawn) [Compound 16f, Cis-(6-benzhydryl-tetrahydropyran-3-yl)-(3-indole-methyl)-amine]					IC50 (NET [5]; read-out: IC50 for the NET): 1.86 µM; IC50 (DAT [2]; read-out: IC50 at the DAT): 0.794 µM
						O[C@@H]1CO[C@H](C(c2ccccc2)c2ccccc2)C[C@H]1NCc1ccccc1 [(−)-29h, (3S,4R,6S)-6-benzhydryl-4-benzylamino-tetrahydropyran-3-ol]	0.336 ± 0.033	4.64 ± 1.03	10	2.61 ± 0.14	
						O[C@@H]1C[C@@H](C(c2ccccc2)c2ccccc2)OC[C@H]1NCCc1ccc(F)cc1 [(−)-29c, (2S,4R,5R)-2-benzhydryl-5-[2-(4-fluoro-phenyl)-ethylamino]-tetrahydropyran-4-ol]	0.439 ± 0.014	1.05 ± 0.04	3.57 ± 0.14	0.427 ± 0.067	
0.251 ± 0.014	2.93	2.36 ± 0.092	11.69	0.592 ± 0.012	0.202 ± 0.013	Brc1ccc(CN[C@H]2CC[C@@H](C(c3ccccc3)c3ccccc3)OC2)cc1 (relative stereo) [Compound 16l, Cis-(6-benzhydryl-tetrahydropyran-3-yl)-(4-bromo-benzyl)-amine]					[3H]DA uptake/DAT binding (DAT [3]): 1.24
						O[C@H]1C[C@H](C(c2ccccc2)c2ccccc2)OC[C@@H]1NCc1ccc(F)cc1 [(+)-29b, (2R,4S,5S)-2-benzhydryl-5-(4-fluoro-benzylamino)-tetrahydro-pyran-4-ol]	1.13 ± 0.58				IC50 (DAT [2]): 1.03 ± 0.12 µM; IC50 (SERT [7]): 5.56 ± 0.64 µM; IC50 (DAT [3]): 0.44 ± 0.03 µM
						COc1ccc(CN[C@@H]2C[C@@H](C(c3ccccc3)c3ccccc3)OC[C@@H]2O)cc1 [(−)-29g, (3R,4R,6S)-6-benzhydryl-4-(4-methoxy-benzylamino)-tetrahydro-pyran-3-ol]	0.765 ± 0.034	0.771 ± 0.086	1.07 ± 0.1	0.822 ± 0.12	
						COc1ccc(CN[C@H]2C[C@H](C(c3ccccc3)c3ccccc3)OC[C@H]2O)cc1 [(+)-29g, (3S,4S,6R)-6-benzhydryl-4-(4-methoxy-benzylamino)-tetrahydropyran-3-ol]	1.84 ± 0.58	3.75 ± 0.62	3.81 ± 0.46	2.67 ± 0.26	
						COc1ccc(CN[C@@H]2CO[C@H](C(c3ccccc3)c3ccccc3)C[C@H]2O)c(OC)c1 [(−)-29e, (2S,4R,5R)-2-benzhydryl-5-(2,4-dimethoxy-benzylamino)-tetrahydropyran-4-ol]	0.115 ± 0.014	1.06	0.024 ± 0.004	0.71 ± 0.13	blockade of both SERT and NET (SNRI profile), in words (SERT [7]; Table 4): dual transport blockers; also recorded: potent blockers for both SERT and NET
0.5 ± 0.034	0.73	2.48 ± 0.145	7.76	0.234 ± 0.017	0.319 ± 0.021	Ic1ccc(CN[C@H]2CC[C@@H](C(c3ccccc3)c3ccccc3)OC2)cc1 (relative stereo) [Compound 16m, Cis-(6-benzhydryl-tetrahydropyran-3-yl)-(4-iodo-benzyl)-amine]					[3H]DA uptake/DAT binding (DAT [3]): 1.56
	40.4	3.95	30.6	5.21	0.129 ± 0.058	Fc1ccc(CCN[C@H]2CC[C@@H](C(c3ccccc3)c3ccccc3)OC2)cc1 (relative stereo) [Compound 16p, Cis-(6-benzhydryl-tetrahydropyran-3-yl)-[2-(4-fluoro-phenyl)-ethyl]-amine]					
						O[C@@H]1CO[C@@H](C(c2ccccc2)c2ccccc2)C[C@@H]1NCc1ccccc1 [(+)-29h, (3S,4S,6R)-6-benzhydryl-4-benzylamino-tetrahydropyran-3-ol]	3.22 ± 0.57	1.25 ± 0.1	4.42 ± 0.41	0.962 ± 0.097	

Structure (SMILES)	IC50 (DAT [3]; [8]) [µM]	NET binding/DAT binding (NET [4])	IC50 (SERT [6]; [9]) [µM]	SERT binding/DAT binding (SERT [6])	IC50 (NET [5]; [10]) [µM]	IC50 (DAT [2]; [11]) [µM]	IC50 (NET (Rattus norvegicus)) [µM]	IC50 (DAT [2]; [12]) [µM]	IC50 (SERT [7]; [13]) [µM]	IC50 (DAT [3]; [14]) [µM]	also measured
O=[N+]([O-])c1ccc(CN[C@H]2CC[C@@H](C(c3ccccc3)c3ccccc3)OC2)cc1 (relative stereo) [Compound 16d, Cis-(6-benzhydryl-tetrahydropyran-3-yl)-(4-nitro-benzyl)-amine]	0.102 ± 0.007										IC50 (DAT [1]): 0.0383 µM; activity at DAT, in words (DAT [2]): the most active for the DAT; IC50 (DAT [2]; read-out: IC50 at the DAT): 0.0383 µM; potency in inhibiting binding versus uptake, in words (DAT [3]; DA uptake assay compared with DAT binding): three fold higher potency in inhibiting binding than uptake; [3H]DA uptake/DAT binding (DAT [3]): 2.7
c1ccc(C(c2ccccc2)[C@@H]2CC[C@H](NCc3ccc4[nH]ccc4c3)CO2)cc1 (relative stereo) [Compound 16n, Cis-(6-benzhydryl-tetrahydropyran-3-yl)-(1H-iodo-5-ylmethyl)-amine]		0.09	0.325 ± 0.02	0.55	0.056 ± 0.006						potency at NET, in words (NET [5]): high affinity; also recorded: strong selective potency at NET; IC50 (DAT [2]; read-out: DAT binding, IC50, [3H]Win 35,428): 0.587 ± 0.066 µM
